Earlier results, collected in patent US20220386610A1, “FUNGICIDAL COMBINATIONS” (UPL Corporation Limited, priority 2019, published 2022).

System: soybean rust
Conditions: for control: 2012/13 season

SMILES	control [%]	efficiency (reduced level) (after ten seasons) [%]	efficiency (starting level) (before the reduction over ten seasons) [%]
CC(C)(C)C(O)(CCc1ccc(Cl)cc1)Cn1cncn1 (stereo not shown) [tebuconazole]	42	24	90
CC(C1CC1)C(O)(Cn1cncn1)c1ccc(Cl)cc1 (stereo not shown) [cyproconazole]	38	–	–
